Data published in ChEMBL document CHEMBL4396913, “Synthesis and biological evaluation of hybrid quinolone-based quaternary ammonium antibacterial agents” (Eur J Med Chem, 2019).
Values after ≈ are worked out from the molar mass of the structure shown.

Tests used:
[1] = test system: Staphylococcus epidermidis; assay: Bactericidal activity against methicillin resistant Staphylococcus epidermidis ATCC 13199 cultured in MH medium assessed as reduction in bacterial survival incubated for 48 hrs by microbroth dilution method; type: functional; conditions: ATCC 13199, 48 h
[2] = Lipophilicity, log k of the compound at 100 ug/ml by micellar electrokinetic chromatography; type: physicochemical
HEK293 [3] = assay: Cytotoxicity against human HEK293 cells assessed as changes in cell morphology upto 20 uM incubated for 72 hrs by MTT assay; type: cell-based; conditions: hek293, 72 h
Staphylococcus aureus [4] = assay: Bactericidal activity against methicillin resistant Staphylococcus aureus N315 cultured in MH medium assessed as reduction in bacterial survival incubated for 48 hrs by microbroth dilution method; type: functional; conditions: N315, 48 h
Bacillus spizizenii [5] = assay: Antibacterial activity against Bacillus subtilis ATCC 6633 cultured in MH medium assessed as reduction in bacterial growth incubated for 48 hrs by microbroth dilution method; type: functional; conditions: ATCC 6633, 48 h
Serratia marcescens [6] = assay: Bactericidal activity against Serratia marcescens ATCC 12795 cultured in MH medium assessed as reduction in bacterial survival incubated for 48 hrs by microbroth dilution method; type: functional; conditions: ATCC 12795, 48 h
[7] = test system: Staphylococcus epidermidis; assay: Antibacterial activity against Staphylococcus epidermidis ATCC 14990 cultured in MH medium assessed as reduction in bacterial growth incubated for 48 hrs by microbroth dilution method; type: functional; conditions: ATCC 14990, 48 h
Proteus vulgaris [8] = assay: Antibacterial activity against Proteus vulgaris NCTC 4635 cultured in MH medium assessed as reduction in bacterial growth incubated for 48 hrs by microbroth dilution method; type: functional; conditions: NCTC 4635, 48 h
Escherichia coli [9] = assay: Bactericidal activity against Escherichia coli ATCC 8739 cultured in MH medium assessed as reduction in bacterial survival incubated for 48 hrs by microbroth dilution method; type: functional; conditions: ATCC 8739, 48 h
HEK293 [10] = assay: Cytotoxicity against human HEK293 cells assessed as cell viability upto 20 uM incubated for 72 hrs by MTT assay; type: cell-based; conditions: hek293, 72 h
Escherichia coli [11] = assay: Antibacterial activity against Escherichia coli ATCC 8739 cultured in MH medium assessed as reduction in bacterial growth incubated for 48 hrs by microbroth dilution method; type: functional; conditions: ATCC 8739, 48 h
[12] = test system: Staphylococcus epidermidis; assay: Antibacterial activity against methicillin resistant Staphylococcus epidermidis ATCC 13199 cultured in MH medium assessed as reduction in bacterial growth incubated for 48 hrs by microbroth dilution method; type: functional; conditions: ATCC 13199, 48 h
[13] = test system: Staphylococcus epidermidis; assay: Bactericidal activity against Staphylococcus epidermidis ATCC 14990 cultured in MH medium assessed as reduction in bacterial survival incubated for 48 hrs by microbroth dilution method; type: functional; conditions: ATCC 14990, 48 h
Streptococcus pneumoniae [14] = assay: Antibacterial activity against Streptococcus pneumoniae cultured in MH medium assessed as reduction in bacterial growth incubated for 48 hrs by microbroth dilution method; type: functional
Pseudomonas aeruginosa [15] = assay: Antibacterial activity against Pseudomonas aeruginosa ATCC 9027 cultured in MH medium assessed as reduction in bacterial growth incubated for 48 hrs by microbroth dilution method; type: functional; conditions: ATCC 9027, 48 h
Proteus vulgaris [16] = assay: Bactericidal activity against Proteus vulgaris NCTC 4635 cultured in MH medium assessed as reduction in bacterial survival incubated for 48 hrs by microbroth dilution method; type: functional; conditions: NCTC 4635, 48 h
Bacillus spizizenii [17] = assay: Bactericidal activity against Bacillus subtilis ATCC 6633 cultured in MH medium assessed as reduction in bacterial survival incubated for 48 hrs by microbroth dilution method; type: functional; conditions: ATCC 6633, 48 h
Serratia marcescens [18] = assay: Antibacterial activity against Serratia marcescens ATCC 12795 cultured in MH medium assessed as reduction in bacterial growth incubated for 48 hrs by microbroth dilution method; type: functional; conditions: ATCC 12795, 48 h
Pseudomonas aeruginosa [19] = assay: Bactericidal activity against Pseudomonas aeruginosa ATCC 9027 cultured in MH medium assessed as reduction in bacterial survival incubated for 48 hrs by microbroth dilution method; type: functional; conditions: ATCC 9027, 48 h
Staphylococcus aureus [20] = assay: Antibacterial activity against methicillin resistant Staphylococcus aureus 6347 cultured in MH medium assessed as reduction in bacterial growth incubated for 48 hrs by microbroth dilution method; type: functional; conditions: Staphylococcus aureus, 6347, 48 h
Staphylococcus aureus [21] = assay: Bactericidal activity against Staphylococcus aureus ATCC 6538 cultured in MH medium assessed as reduction in bacterial survival incubated for 48 hrs by microbroth dilution method; type: functional; conditions: ATCC 6538, 48 h
Staphylococcus aureus [22] = assay: Antibacterial activity against Staphylococcus aureus ATCC 6538 cultured in MH medium assessed as reduction in bacterial growth incubated for 48 hrs by microbroth dilution method; type: functional; conditions: ATCC 6538, 48 h
Staphylococcus aureus [23] = assay: Bactericidal activity against methicillin resistant Staphylococcus aureus 6347 cultured in MH medium assessed as reduction in bacterial survival incubated for 48 hrs by microbroth dilution method; type: functional; conditions: Staphylococcus aureus, 6347, 48 h
Enterococcus hirae [24] = assay: Antibacterial activity against Enterococcus hirae ATCC 1052 cultured in BHI medium assessed as reduction in bacterial growth incubated for 48 hrs by microbroth dilution method; type: functional; conditions: ATCC 1052, 48 h
Staphylococcus aureus [25] = assay: Antibacterial activity against methicillin resistant Staphylococcus aureus N315 cultured in MH medium assessed as reduction in bacterial growth incubated for 48 hrs by microbroth dilution method; type: functional; conditions: N315, 48 h
Enterococcus hirae [26] = assay: Bactericidal activity against Enterococcus hirae ATCC 1052 cultured in BHI medium assessed as reduction in bacterial survival incubated for 48 hrs by microbroth dilution method; type: functional; conditions: ATCC 1052, 48 h
Streptococcus pneumoniae [27] = assay: Bactericidal activity against Streptococcus pneumoniae cultured in MH medium assessed as reduction in bacterial survival incubated for 48 hrs by microbroth dilution method; type: functional

Row | SMILES | MBC (Staphylococcus aureus [4]) | MIC (Bacillus spizizenii [5]) | MBC (Serratia marcescens [6]) | MIC [7] | MIC (Proteus vulgaris [8]) | MBC (Escherichia coli [9]) | MIC (Escherichia coli [11]) | MBC [13] | MIC (Streptococcus pneumoniae [14]) | MIC (Pseudomonas aeruginosa [15]) | MBC (Proteus vulgaris [16]) | MBC (Bacillus spizizenii [17]) | MIC (Serratia marcescens [18]) | MBC (Pseudomonas aeruginosa [19]) | MIC (Staphylococcus aureus [20]) | MBC (Staphylococcus aureus [21]) | MIC (Staphylococcus aureus [22]) | MBC (Staphylococcus aureus [23]) | MIC (Enterococcus hirae [24]) | MIC (Staphylococcus aureus [25]) | also measured
1 | CCn1cc(C(=O)O)c(=O)c2cc(F)c(N3CC[N+]4(CC3)CN3C(C)=CC(C)=C(C(=O)O)C3=N4)cc21.[Cl-] | 128 µg/mL | 16 µg/mL | 128 µg/mL | 64 µg/mL | 0.25 µg/mL | 8 µg/mL | 4 µg/mL | 128 µg/mL | > 512 µg/mL | 256 µg/mL | 0.5 µg/mL | 64 µg/mL | 64 µg/mL | > 512 µg/mL | 64 µg/mL | 128 µg/mL | 64 µg/mL | 128 µg/mL | > 512 µg/mL | 128 µg/mL | MBC [1]: 32 µg/mL; log K [2]: -0.2721; Activity (HEK293 [3]): Non-Toxic; Activity (HEK293 [10]): Non-Toxic; MIC [12]: 32 µg/mL
2 | CCn1cc(C(=O)O)c(=O)c2cc(F)c(N3CCNCC3)cc21 [NORFLOXACIN] | 2 µg/mL (≈ 6.26 µM) | 0.125 µg/mL (≈ 0.391 µM) | 0.25 µg/mL (≈ 0.783 µM) | 0.5 µg/mL (≈ 1.57 µM) | 0.016 µg/mL (≈ 0.0501 µM) | 0.063 µg/mL (≈ 0.197 µM) | 0.032 µg/mL (≈ 0.1 µM) | 2 µg/mL (≈ 6.26 µM) | 128 µg/mL (≈ 401 µM) | 0.25 µg/mL (≈ 0.783 µM) | 0.016 µg/mL (≈ 0.0501 µM) | 0.125 µg/mL (≈ 0.391 µM) | 0.25 µg/mL (≈ 0.783 µM) | 0.25 µg/mL (≈ 0.783 µM) | 1 µg/mL (≈ 3.13 µM) | 0.25 µg/mL (≈ 0.783 µM) | 0.25 µg/mL (≈ 0.783 µM) | 1 µg/mL (≈ 3.13 µM) | 64 µg/mL (≈ 200 µM) | 1 µg/mL (≈ 3.13 µM) | MBC [1]: 0.125 µg/mL (≈ 0.391 µM); log K [2]: 0.1033; MBC (Enterococcus hirae [26]): 64 µg/mL (≈ 200 µM); MIC [12]: 0.125 µg/mL (≈ 0.391 µM); MBC (Streptococcus pneumoniae [27]): > 512 µg/mL
3 | CC1=CC(C)=C(C(=O)O)C2=N[N+]3(CN12)[C@H](C)CN(c1c(F)c(N)c2c(=O)c(C(=O)O)cn(C4CC4)c2c1F)C[C@@H]3C.[Cl-] (some centres not stated) | 8 µg/mL | 2 µg/mL | 32 µg/mL | 4 µg/mL | 1 µg/mL | 4 µg/mL | 4 µg/mL | 16 µg/mL | > 512 µg/mL | 32 µg/mL | 2 µg/mL | 2 µg/mL | 32 µg/mL | > 512 µg/mL | 4 µg/mL | 16 µg/mL | 8 µg/mL | 8 µg/mL | > 512 µg/mL | 8 µg/mL | MBC [1]: 4 µg/mL; log K [2]: -0.2606; Activity (HEK293 [3]): Non-Toxic; Activity (HEK293 [10]): Non-Toxic; MIC [12]: 2 µg/mL
4 | CCn1cc(C(=O)O)c(=O)c2cnc(N3CC[N+]4(CC3)CN3C(=N4)C(C(=O)O)=Cc4ccccc43)nc21.[Cl-] | 512 µg/mL | 64 µg/mL | 128 µg/mL | 256 µg/mL | 16 µg/mL | 16 µg/mL | 16 µg/mL | 256 µg/mL | > 512 µg/mL | 128 µg/mL | 16 µg/mL | 64 µg/mL | 128 µg/mL | 128 µg/mL | 256 µg/mL | 512 µg/mL | 512 µg/mL | 256 µg/mL | > 512 µg/mL | 512 µg/mL | MBC [1]: 16 µg/mL; log K [2]: -0.4434; Activity (HEK293 [3]): Non-Toxic; Activity (HEK293 [10]): Non-Toxic; MIC [12]: 8 µg/mL
5 | COc1c(N2C[C@@H]3CCCN[C@@H]3C2)c(F)cc2c(=O)c(C(=O)O)cn(C3CC3)c12 [MOXIFLOXACIN] | 0.25 µg/mL (≈ 0.623 µM) | 0.032 µg/mL (≈ 0.0797 µM) | 0.5 µg/mL (≈ 1.25 µM) | 0.063 µg/mL (≈ 0.157 µM) | 0.004 µg/mL (≈ 0.00996 µM) | 0.25 µg/mL (≈ 0.623 µM) | 0.125 µg/mL (≈ 0.311 µM) | 0.125 µg/mL (≈ 0.311 µM) | 16 µg/mL (≈ 39.9 µM) | 16 µg/mL (≈ 39.9 µM) | 0.008 µg/mL (≈ 0.0199 µM) | 0.032 µg/mL (≈ 0.0797 µM) | 0.25 µg/mL (≈ 0.623 µM) | 16 µg/mL (≈ 39.9 µM) | 0.063 µg/mL (≈ 0.157 µM) | 0.125 µg/mL (≈ 0.311 µM) | 0.125 µg/mL (≈ 0.311 µM) | 0.063 µg/mL (≈ 0.157 µM) | 16 µg/mL (≈ 39.9 µM) | 0.125 µg/mL (≈ 0.311 µM) | MBC (Enterococcus hirae [26]): 32 µg/mL (≈ 79.7 µM); MBC (Streptococcus pneumoniae [27]): 64 µg/mL (≈ 159 µM)
